These results are taken from PubChem BioAssay (NCI).

Test systems include M19-MEL melanoma; MOLT-4 leukemia; DMS 114 small cell lung; XF 498 CNS; NCI-H23 lung; DLD-1 colon; SNB-75 CNS; HOP-18 NSCLC; CCRF-CEM leukemia; MDA-MB-435; HS 578T breast; BT-549 breast.
Assay in all cases: inhibition of tumour cell growth, NCI panel, 48 h

Structures are written as SMILES.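 How tested: cells in 96-well plates exposed to compound for 48 hours at five concentrations. TGI: concentration producing complete growth inhibition.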

With `[N-]=[N+]=NC(CI)c1cn([C@H]2C[C@H](O)[C@@H](CO)O2)c(=O)[nH]c1=O` (some centres not stated), the TGI with M19-MEL melanoma, in the test on MOLT-4 leukemia, with DMS 114 small cell lung, in the test on XF 498 CNS, in the test on NCI-H23 lung and in the test on DLD-1 colon was over 100 µM each time. Also, the TGI with SNB-75 CNS, in the test with HOP-18 NSCLC and in the test on CCRF-CEM leukemia was over 100 µM throughout.
Consider `O=c1c2ccccc2nc(-c2ccccc2)n1NC1OC(CO)C(O)C(O)C1O` (configuration not stated), for which the TGI in the test on M19-MEL melanoma, in the test with MOLT-4 leukemia, in the test on DMS 114 small cell lung, with XF 498 CNS, in the test with NCI-H23 lung and in the test on DLD-1 colon was over 100 µM each time. Also, the TGI with SNB-75 CNS, in the test with HOP-18 NSCLC and in the test on CCRF-CEM leukemia was over 100 µM in each case.
Consider `CCOC(=O)C(=Cc1cccnc1C)C(=O)OCC`, for which the TGI in the test on M19-MEL melanoma stood at 22.3 µM; with MOLT-4 leukemia, 46.9 µM; with DMS 114 small cell lung it was 31.3 µM; in the test on XF 498 CNS it was 25.6 µM; in the test on NCI-H23 lung it was 18.4 µM; in the test on DLD-1 colon, 47.4 µM. Also, the figures for the TGI in the test on SNB-75 CNS, in the test with HOP-18 NSCLC and in the test on CCRF-CEM leukemia were 11.8 µM, 21.7 µM and over 100 µM, respectively.
As to `COc1c2c(nc3ccccc13)-c1cc3c(c(=O)n1C2)COC(=O)C3(O)CC(=O)N1CCOCC1` (configuration not stated), the TGI was 44.8 µM in the test on M19-MEL melanoma; 5.03 µM in the test with MOLT-4 leukemia; 24.2 µM in the test on DMS 114 small cell lung; 33.9 µM with XF 498 CNS; 8.05 µM in the test on NCI-H23 lung; 76.9 µM in the test on MDA-MB-435. For the same molecule, the TGI in the test with DLD-1 colon is over 100 µM; in the test on SNB-75 CNS, 11.6 µM; in the test on HS 578T breast, over 88.8 µM; with HOP-18 NSCLC, over 79.2 µM; in the test on BT-549 breast, over 53.1 µM; with CCRF-CEM leukemia, 3.95 µM.
In the case of `CCOC(=O)NC(=O)c1cn(CCN2CCN(c3ncnc4nc[nH]c34)CC2)c(=O)[nH]c1=O`, the TGI in the test on M19-MEL melanoma, in the test on MOLT-4 leukemia, in the test on DMS 114 small cell lung, with XF 498 CNS, in the test on NCI-H23 lung and in the test on DLD-1 colon was over 100 µM each time. Further, the TGI in the test with SNB-75 CNS, with HOP-18 NSCLC and in the test on CCRF-CEM leukemia was over 100 µM each time.
For the molecule `CC1=C2C(=CC(C)(C)C2O)C(=O)C(C)(O)C12CC2` (configuration not stated), the TGI in the test with M19-MEL melanoma is 0.0861 µM; with MOLT-4 leukemia, 0.0245 µM; with DMS 114 small cell lung, 0.0281 µM; with XF 498 CNS, 0.0309 µM; in the test on NCI-H23 lung it was 0.0234 µM; in the test with DLD-1 colon, 0.0447 µM. Further, the TGI with SNB-75 CNS was found to be 0.0377 µM; with HOP-18 NSCLC, 0.179 µM; with CCRF-CEM leukemia it was 0.126 µM.
